{"source": "ChEMBL document CHEMBL5113480", "about": "“Discovery of novel biphenyl-substituted pyridone derivatives as potent non-nucleoside reverse transcriptase inhibitors with promising oral bioavailability” (Eur J Med Chem, 2022)", "key": {"[1]": {"system": "Human immunodeficiency virus 1", "assay": "Antiviral activity against HIV-1 IIIB infected in human MT4 cells assessed as reduction in viral replication by MTT assay", "type": "functional, organism-based", "details": "Human immunodeficiency virus 1, IIIB"}, "[2]": {"system": "Human immunodeficiency virus 1", "assay": "Antiviral activity against HIV-1 ROD infected in human MT4 cells assessed as reduction in viral replication by MTT assay", "type": "functional, organism-based"}, "[3]": {"assay": "Selectivity index, ratio of CC50 for cytotoxicity against human MT4 cells to EC50 of Anti-HIV activity against HIV-1 IIIB infected in human MT4 cells", "type": "toxicity, cell-based", "details": "read-out: Ratio CC50/EC50"}, "[4]": {"system": "Human immunodeficiency virus 1", "assay": "Antiviral activity against HIV-1 L100I mutant infected in human MT4 cells assessed as reduction in viral replication by MTT assay", "type": "functional, organism-based", "details": "Human immunodeficiency virus 1, L100I mutant"}, "[5]": {"system": "Human immunodeficiency virus 1", "assay": "Antiviral activity against HIV-1 K103N mutant infected in human MT4 cells assessed as reduction in viral replication by MTT assay", "type": "functional, organism-based", "details": "Human immunodeficiency virus 1, K103N mutant"}, "[6]": {"system": "Human immunodeficiency virus 1", "assay": "Antiviral activity against HIV-1 Y181C mutant infected in human MT4 cells assessed as reduction in viral replication by MTT assay", "type": "functional, organism-based", "details": "Human immunodeficiency virus 1, Y181C mutant"}, "[7]": {"system": "Human immunodeficiency virus 1", "assay": "Antiviral activity against HIV-1 Y188L mutant infected in human MT4 cells assessed as reduction in viral replication by MTT assay", "type": "functional, organism-based", "details": "Human immunodeficiency virus 1, Y188L mutant"}, "[8]": {"system": "Human immunodeficiency virus 1", "assay": "Antiviral activity against HIV-1 E138K mutant infected in human MT4 cells assessed as reduction in viral replication by MTT assay", "type": "functional, organism-based", "details": "Human immunodeficiency virus 1, E138K mutant"}, "[9]": {"system": "Human immunodeficiency virus 1", "assay": "Antiviral activity against HIV-1 F227L-V106A mutant infected in human MT4 cells assessed as reduction in viral replication by MTT assay", "type": "functional, organism-based", "details": "Human immunodeficiency virus 1, F227L-V106A mutant"}, "[10]": {"system": "Human immunodeficiency virus 1", "assay": "Antiviral activity against HIV-1 K103N-Y181C mutant infected in human MT4 cells assessed as reduction in viral replication by MTT assay", "type": "functional, organism-based", "details": "Human immunodeficiency virus 1, K103N-Y181C mutant"}, "[11]": {"biological_target": "Human immunodeficiency virus type 1 reverse transcriptase (Human immunodeficiency virus 1, UniProt Q72547)", "assay": "Inhibition of wild type HIV-1 Reverse transcriptase"}, "[12]": {"biological_target": "T1, Cytochrome P450 1A2 (Homo sapiens, UniProt P05177)", "T1 sequence (P05177 whole entry)": "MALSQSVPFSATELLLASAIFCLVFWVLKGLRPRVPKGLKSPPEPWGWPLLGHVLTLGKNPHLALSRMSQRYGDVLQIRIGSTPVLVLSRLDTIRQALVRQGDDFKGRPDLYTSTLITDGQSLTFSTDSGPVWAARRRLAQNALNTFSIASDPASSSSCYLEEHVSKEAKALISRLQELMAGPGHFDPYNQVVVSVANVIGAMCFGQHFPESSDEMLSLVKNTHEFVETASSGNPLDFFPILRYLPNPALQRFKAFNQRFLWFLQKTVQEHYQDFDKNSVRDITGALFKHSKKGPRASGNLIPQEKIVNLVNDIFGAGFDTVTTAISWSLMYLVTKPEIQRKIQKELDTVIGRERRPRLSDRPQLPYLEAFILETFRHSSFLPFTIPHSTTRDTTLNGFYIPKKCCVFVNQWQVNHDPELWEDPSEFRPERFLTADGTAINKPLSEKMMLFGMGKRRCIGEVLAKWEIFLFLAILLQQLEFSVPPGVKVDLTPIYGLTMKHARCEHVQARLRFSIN", "assay": "Inhibition of CYP1A2 (unknown origin)", "type": "ADME"}, "[13]": {"biological_target": "Cytochrome P450 2C9 (Homo sapiens, UniProt P11712)", "sequence (P11712 whole entry)": "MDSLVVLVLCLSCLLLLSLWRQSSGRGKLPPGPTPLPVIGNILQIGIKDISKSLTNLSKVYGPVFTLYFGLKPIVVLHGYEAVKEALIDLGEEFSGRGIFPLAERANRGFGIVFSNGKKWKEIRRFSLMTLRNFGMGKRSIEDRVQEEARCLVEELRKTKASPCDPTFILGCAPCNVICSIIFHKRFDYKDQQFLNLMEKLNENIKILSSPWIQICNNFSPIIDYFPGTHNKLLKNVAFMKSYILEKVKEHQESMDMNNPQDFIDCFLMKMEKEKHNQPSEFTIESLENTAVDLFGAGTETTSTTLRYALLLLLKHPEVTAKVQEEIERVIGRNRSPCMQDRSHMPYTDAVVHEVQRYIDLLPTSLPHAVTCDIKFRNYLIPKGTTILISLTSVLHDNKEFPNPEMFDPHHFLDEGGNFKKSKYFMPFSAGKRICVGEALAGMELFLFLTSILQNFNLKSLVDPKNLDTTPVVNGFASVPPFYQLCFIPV", "assay": "Inhibition of CYP2C9 (unknown origin)", "type": "ADME"}, "[14]": {"biological_target": "Cytochrome P450 2C19 (Homo sapiens, UniProt P33261)", "sequence (P33261 whole entry)": "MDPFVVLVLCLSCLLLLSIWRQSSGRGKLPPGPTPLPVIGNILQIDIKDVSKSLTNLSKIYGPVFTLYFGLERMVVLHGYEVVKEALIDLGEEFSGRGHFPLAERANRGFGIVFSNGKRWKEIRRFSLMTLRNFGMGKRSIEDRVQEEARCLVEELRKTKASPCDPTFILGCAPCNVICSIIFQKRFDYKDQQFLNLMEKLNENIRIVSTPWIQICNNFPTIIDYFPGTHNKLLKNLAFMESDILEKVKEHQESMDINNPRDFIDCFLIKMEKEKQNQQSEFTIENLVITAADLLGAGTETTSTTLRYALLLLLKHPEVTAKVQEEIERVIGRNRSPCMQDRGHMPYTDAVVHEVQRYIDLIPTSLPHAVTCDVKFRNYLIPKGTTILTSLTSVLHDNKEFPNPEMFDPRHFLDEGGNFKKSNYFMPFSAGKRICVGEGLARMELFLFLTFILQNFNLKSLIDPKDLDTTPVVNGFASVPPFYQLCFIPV", "assay": "Inhibition of CYP2C19 (unknown origin)", "type": "ADME"}, "[15]": {"biological_target": "Cytochrome P450 2D6 (Homo sapiens, UniProt P10635)", "sequence (P10635 whole entry)": "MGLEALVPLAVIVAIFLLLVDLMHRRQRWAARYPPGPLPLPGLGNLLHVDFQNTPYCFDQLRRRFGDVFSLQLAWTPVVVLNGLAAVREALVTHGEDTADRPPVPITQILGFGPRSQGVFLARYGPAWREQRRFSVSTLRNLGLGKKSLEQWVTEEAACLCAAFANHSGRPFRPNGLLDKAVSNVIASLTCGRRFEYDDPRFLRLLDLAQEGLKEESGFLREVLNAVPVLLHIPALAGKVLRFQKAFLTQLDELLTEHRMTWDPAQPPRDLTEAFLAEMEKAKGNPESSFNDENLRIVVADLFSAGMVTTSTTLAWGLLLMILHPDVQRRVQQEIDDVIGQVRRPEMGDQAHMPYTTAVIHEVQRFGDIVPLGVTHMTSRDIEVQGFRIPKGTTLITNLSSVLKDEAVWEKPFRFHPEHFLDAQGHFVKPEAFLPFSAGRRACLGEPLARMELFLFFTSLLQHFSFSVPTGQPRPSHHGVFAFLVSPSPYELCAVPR", "assay": "Inhibition of CYP2D6 (unknown origin)", "type": "ADME"}, "[16]": {"biological_target": "T2, Cytochrome P450 3A4 (Homo sapiens, UniProt P08684)", "T2 sequence (P08684 whole entry)": "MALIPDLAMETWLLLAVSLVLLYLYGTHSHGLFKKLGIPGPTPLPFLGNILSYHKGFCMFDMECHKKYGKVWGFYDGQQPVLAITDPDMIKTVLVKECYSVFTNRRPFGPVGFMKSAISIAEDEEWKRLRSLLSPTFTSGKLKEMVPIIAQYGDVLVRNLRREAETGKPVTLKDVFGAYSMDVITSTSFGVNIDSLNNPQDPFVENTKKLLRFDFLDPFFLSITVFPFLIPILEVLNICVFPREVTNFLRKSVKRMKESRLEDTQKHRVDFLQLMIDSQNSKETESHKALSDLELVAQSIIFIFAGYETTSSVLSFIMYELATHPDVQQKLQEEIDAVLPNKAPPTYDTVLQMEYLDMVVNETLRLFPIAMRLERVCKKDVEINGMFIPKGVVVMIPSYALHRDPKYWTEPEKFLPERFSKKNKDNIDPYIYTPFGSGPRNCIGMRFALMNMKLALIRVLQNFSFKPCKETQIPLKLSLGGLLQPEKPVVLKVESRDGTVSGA", "assay": "Inhibition of CYP3A4T (unknown origin)", "type": "ADME"}, "[17]": {"biological_target": "T2, Cytochrome P450 3A4", "assay": "Inhibition of CYP3A4M (unknown origin)", "type": "ADME"}, "[18]": {"assay": "Half life in Sprague-Dawley rat at 1 mg/kg,iv", "type": "ADME, organism-based", "details": "in vivo"}, "[19]": {"assay": "Half life in Sprague-Dawley rat at 5 mg/kg,po", "type": "ADME, organism-based", "details": "in vivo"}, "[20]": {"assay": "Tmax in Sprague-Dawley rat at 1 mg/kg,iv", "type": "ADME, organism-based", "details": "in vivo"}, "[21]": {"assay": "Tmax in Sprague-Dawley rat at 5 mg/kg,po", "type": "ADME, organism-based", "details": "in vivo"}, "[22]": {"assay": "Cmax in Sprague-Dawley rat at 1 mg/kg,iv", "type": "ADME, organism-based", "parameters": "dose 1 mg/kg, route iv", "details": "in vivo"}, "[23]": {"assay": "Cmax in Sprague-Dawley rat at 5 mg/kg,po", "type": "ADME, organism-based", "parameters": "dose 5 mg/kg, route po", "details": "in vivo"}, "[24]": {"assay": "AUC (0 to t) in Sprague-Dawley rat at 1 mg/kg,iv", "type": "ADME, organism-based", "parameters": "dose 1 mg/kg, route iv", "details": "in vivo"}, "[25]": {"assay": "AUC (0 to t) in Sprague-Dawley rat at 5 mg/kg,po", "type": "ADME, organism-based", "parameters": "dose 5 mg/kg, route po", "details": "in vivo"}, "[26]": {"assay": "Clearance in Sprague-Dawley rat at 1 mg/kg,iv", "type": "ADME, organism-based", "details": "in vivo"}, "[27]": {"assay": "Clearance in Sprague-Dawley rat at 5 mg/kg,po", "type": "ADME, organism-based", "details": "in vivo"}, "[28]": {"assay": "MRT (0 to t) in Sprague-Dawley rat at 1 mg/kg,iv", "type": "ADME, organism-based", "details": "in vivo"}, "[29]": {"assay": "MRT (0 to t) in Sprague-Dawley rat at 5 mg/kg,po", "type": "ADME, organism-based", "details": "in vivo"}, "[30]": {"assay": "MRT (0 to infinity) in Sprague-Dawley rat at 1 mg/kg,iv", "type": "ADME, organism-based", "details": "in vivo"}, "[31]": {"assay": "MRT (0 to infinity) in Sprague-Dawley rat at 5 mg/kg,po", "type": "ADME, organism-based", "details": "in vivo"}, "[32]": {"biological_target": "Voltage-gated inwardly rectifying potassium channel KCNH2 (Homo sapiens, UniProt Q12809)", "sequence (Q12809 whole entry)": "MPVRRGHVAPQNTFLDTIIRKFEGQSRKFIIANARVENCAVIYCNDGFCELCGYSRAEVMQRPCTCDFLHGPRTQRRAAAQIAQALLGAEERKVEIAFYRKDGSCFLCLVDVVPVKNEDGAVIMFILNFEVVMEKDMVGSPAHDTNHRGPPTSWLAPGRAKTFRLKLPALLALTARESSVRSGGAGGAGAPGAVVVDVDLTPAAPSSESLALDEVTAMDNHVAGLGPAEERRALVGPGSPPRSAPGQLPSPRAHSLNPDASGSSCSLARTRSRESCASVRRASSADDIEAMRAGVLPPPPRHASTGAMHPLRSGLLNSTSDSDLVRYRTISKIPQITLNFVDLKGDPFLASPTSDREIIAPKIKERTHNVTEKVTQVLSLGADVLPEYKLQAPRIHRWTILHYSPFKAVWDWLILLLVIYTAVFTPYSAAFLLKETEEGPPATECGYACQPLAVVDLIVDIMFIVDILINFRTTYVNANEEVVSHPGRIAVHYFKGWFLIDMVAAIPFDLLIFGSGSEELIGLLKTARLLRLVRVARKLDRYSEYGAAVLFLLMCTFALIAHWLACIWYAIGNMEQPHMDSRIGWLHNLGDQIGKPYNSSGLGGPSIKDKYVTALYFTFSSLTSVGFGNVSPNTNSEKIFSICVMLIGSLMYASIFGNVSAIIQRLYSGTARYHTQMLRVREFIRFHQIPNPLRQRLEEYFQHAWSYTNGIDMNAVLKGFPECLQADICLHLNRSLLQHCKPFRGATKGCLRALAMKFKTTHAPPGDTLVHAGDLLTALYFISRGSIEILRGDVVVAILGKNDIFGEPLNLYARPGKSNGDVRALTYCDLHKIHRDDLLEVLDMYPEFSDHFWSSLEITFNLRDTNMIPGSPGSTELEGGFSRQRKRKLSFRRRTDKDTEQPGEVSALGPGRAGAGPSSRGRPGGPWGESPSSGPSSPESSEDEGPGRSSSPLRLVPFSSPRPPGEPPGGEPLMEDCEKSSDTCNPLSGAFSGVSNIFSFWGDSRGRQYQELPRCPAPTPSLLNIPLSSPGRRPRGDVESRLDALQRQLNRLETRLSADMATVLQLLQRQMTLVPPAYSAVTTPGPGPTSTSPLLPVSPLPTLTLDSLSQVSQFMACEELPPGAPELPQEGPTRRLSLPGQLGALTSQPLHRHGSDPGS", "assay": "Inhibition of human ERG potassium channel expressed in CHO cells by automated patch clamp electrophysiological assay", "type": "toxicity, cell-based"}, "[33]": {"assay": "Acute toxicity in mouse at 1.2 g/Kg,IG assessed as mouse death", "details": "in vivo, po, 1200 mg/kg"}, "[34]": {"assay": "Acute toxicity in mouse at 1.2 g/Kg,IG assessed as change in body weight", "details": "in vivo, po, 1200 mg/kg"}, "[35]": {"assay": "Acute toxicity in mouse at 1.2 g/Kg,IG assessed as behavioral abnormalities", "details": "in vivo, po, 1200 mg/kg"}, "[36]": {"assay": "Acute toxicity in mouse at 1.2 g/Kg,IG assessed as brain damage by H and E staining based analysis", "type": "tissue-based", "details": "in vivo, po, 1200 mg/kg"}, "[37]": {"assay": "Acute toxicity in mouse at 1.2 g/Kg,IG assessed as heart damage by H and E staining based analysis", "type": "tissue-based", "details": "in vivo, po, 1200 mg/kg"}, "[38]": {"assay": "Acute toxicity in mouse at 1.2 g/Kg,IG assessed as liver damage by H and E staining based analysis", "details": "in vivo, po, 1200 mg/kg"}, "[39]": {"assay": "Acute toxicity in mouse at 1.2 g/Kg,IG assessed as spleen damage by H and E staining based analysis", "details": "in vivo, po, 1200 mg/kg"}, "[40]": {"assay": "Acute toxicity in mouse at 1.2 g/Kg,IG assessed as lung damage by H and E staining based analysis", "details": "in vivo, po, 1200 mg/kg"}, "[41]": {"assay": "Acute toxicity in mouse at 1.2 g/Kg,IG assessed as kidney damage by H and E staining based analysis", "details": "in vivo, po, 1200 mg/kg"}, "[42]": {"assay": "AUC (0 to infinity) in Sprague-Dawley rat at 1 mg/kg,iv", "type": "ADME, organism-based", "parameters": "time infinity, dose 1 mg/kg, route iv", "details": "in vivo"}, "[43]": {"assay": "AUC (0 to infinity) in Sprague-Dawley rat at 5 mg/kg,po", "type": "ADME, organism-based", "parameters": "time infinity, dose 5 mg/kg, route po", "details": "in vivo"}}}
{"smiles": "Cc1cccc(-c2cc(C#N)cc(Oc3c(C(F)(F)F)ccn(Cc4n[nH]c(=O)n4C)c3=O)c2)c1", "values": [{"measurement": "EC50", "setting": "[1]", "value": 13, "unit": "nM"}, {"measurement": "EC50", "setting": "[2]", "value": "> 35000", "unit": "nM"}, {"measurement": "selectivity ratio", "setting": "[3]", "value": 2020}, {"measurement": "EC50", "setting": "[4]", "value": 24, "unit": "nM"}, {"measurement": "EC50", "setting": "[5]", "value": 13, "unit": "nM"}, {"measurement": "EC50", "setting": "[6]", "value": 58, "unit": "nM"}, {"measurement": "EC50", "setting": "[7]", "value": 760, "unit": "nM"}, {"measurement": "EC50", "setting": "[8]", "value": 25, "unit": "nM"}, {"measurement": "EC50", "setting": "[9]", "value": 27500, "unit": "nM"}, {"measurement": "EC50", "setting": "[10]", "value": 260, "unit": "nM"}, {"measurement": "IC50", "setting": "[11]", "value": 41, "unit": "nM"}, {"measurement": "IC50", "setting": "[12]", "value": "> 50000", "unit": "nM"}, {"measurement": "IC50", "setting": "[13]", "value": 38300, "unit": "nM"}, {"measurement": "IC50", "setting": "[14]", "value": 28600, "unit": "nM"}, {"measurement": "IC50", "setting": "[15]", "value": "> 50000", "unit": "nM"}, {"measurement": "IC50", "setting": "[16]", "value": 25300, "unit": "nM"}, {"measurement": "IC50", "setting": "[17]", "value": "> 50000", "unit": "nM"}, {"measurement": "half-life", "setting": "[18]", "value": 1.9, "unit": "h"}, {"measurement": "half-life", "setting": "[19]", "value": 8.45, "unit": "h"}, {"measurement": "Tmax", "setting": "[20]", "value": 4.8, "unit": "min"}, {"measurement": "Tmax", "setting": "[21]", "value": 6.67, "unit": "h"}, {"measurement": "Cmax", "setting": "[22]", "value": 469, "unit": "ng/mL"}, {"measurement": "Cmax", "setting": "[23]", "value": 583, "unit": "ng/mL"}, {"measurement": "AUC(0-t)", "setting": "[24]", "value": 892, "unit": "ng·h/mL"}, {"measurement": "AUC(0-t)", "setting": "[25]", "value": 4980, "unit": "ng·h/mL"}, {"measurement": "clearance", "setting": "[26]", "value": 17.9, "unit": "mL/min/kg"}, {"measurement": "CL/F", "setting": "[27]", "value": 13.2, "unit": "mL/min/kg"}, {"measurement": "MRT last", "setting": "[28]", "value": 2.03, "unit": "h"}, {"measurement": "MRT last", "setting": "[29]", "value": 6.79, "unit": "h"}, {"measurement": "MRT inf", "setting": "[30]", "value": 2.48, "unit": "h"}, {"measurement": "MRT inf", "setting": "[31]", "value": 13.9, "unit": "h"}, {"measurement": "IC50", "setting": "[32]", "value": "> 200000", "unit": "nM"}, {"measurement": "Activity", "setting": "[33]", "value": "Non-Toxic"}, {"measurement": "Activity", "setting": "[34]", "value": "Non-Toxic"}, {"measurement": "Activity", "setting": "[35]", "value": "Non-Toxic"}, {"measurement": "Activity", "setting": "[36]", "value": "Non-Toxic"}, {"measurement": "Activity", "setting": "[37]", "value": "Non-Toxic"}, {"measurement": "Activity", "setting": "[38]", "value": "Non-Toxic"}, {"measurement": "Activity", "setting": "[39]", "value": "Non-Toxic"}, {"measurement": "Activity", "setting": "[40]", "value": "Non-Toxic"}, {"measurement": "Activity", "setting": "[41]", "value": "Non-Toxic"}, {"measurement": "AUC(0-inf)", "setting": "[42]", "value": 940, "unit": "ng·h/mL"}, {"measurement": "AUC(0-inf)", "setting": "[43]", "value": 6590, "unit": "ng·h/mL"}]}
